The target in the test is D(3) dopamine receptor (Homo sapiens, UniProt P35462).
D(3) dopamine receptor, sequence (P35462 as listed by the source): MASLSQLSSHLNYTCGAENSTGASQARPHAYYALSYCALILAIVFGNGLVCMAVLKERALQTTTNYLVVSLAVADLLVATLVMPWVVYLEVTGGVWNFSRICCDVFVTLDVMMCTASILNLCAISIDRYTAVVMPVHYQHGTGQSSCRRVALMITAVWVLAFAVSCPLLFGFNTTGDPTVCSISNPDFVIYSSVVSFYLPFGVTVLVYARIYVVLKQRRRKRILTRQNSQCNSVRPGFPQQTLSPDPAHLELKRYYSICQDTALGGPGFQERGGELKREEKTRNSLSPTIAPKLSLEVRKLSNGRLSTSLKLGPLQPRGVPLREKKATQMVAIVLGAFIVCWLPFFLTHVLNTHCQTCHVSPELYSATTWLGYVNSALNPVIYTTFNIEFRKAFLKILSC

The Ki is a measure of affinity in units of concentration, obtained from inhibition or displacement. A high value points to a looser hold on the target. Consider `NC(=O)C1(N2CCCCC2)CCN(CCCN2c3ccccc3CCc3ccccc32)CC1` [CAS_5942-95-0], for which the Ki came to 15 nM.
The result for `CN(C)S(=O)(=O)c1ccc2c(c1)N(CCCN1CCC(CCO)CC1)c1ccccc1S2` [CAS_39860-99-6] reads 0.28 nM.
The result for `CCCN[C@@H]1CCc2c(OC)cccc2[C@@H]1C` [CAS_85379-09-5] reads 139 nM; that for `CCCN(CCC)C1C=Cc2c(OC)cccc2C1C` (configuration not stated) [CAS_5311190], 11 nM.
In turn, `Nc1nc2c(ncn2[C@@H]2O[C@H](COP(=O)(O)OP(=O)(O)NP(=O)(O)O)[C@@H](O)[C@H]2O)c(=O)[nH]1` [Guanylyl imidodiphosphate] came in with a Ki of 34 nM.
Next, `CN1CCN(CCCN2c3ccccc3Sc3ccc(S(=O)(=O)N(C)C)cc32)CC1` [NSC_92178]: 1.2 nM; `CCS(=O)(=O)c1cc(C(=O)NCC2CCCN2CC2CC2)c(OC)cc1I` (configuration not stated) [NSC_122245]: 1.3 nM.

These data come from BindingDB's records for PubMed 1586393 (U. 109, 1992).
